Here are results for 52 sequences from the supplement of paper PMC11208160.

The nature of the data set: recombinant UMI read abundance after kanamycin selection (control-corrected) (log10(CPM+1)); higher = more efficient recombination; extreme values may be limits of the assay; sequences stand for … in AGTGCAGAGAAAATCGGCCAGTTTTCTCTGCCTGCAGTCCGCATGCCGTGGGACCCCTTGGGTTCTAACCTGTTGCCTAGATTTATGCAGCGGACTGCCTTTCTCCCAAAGTGATAAACCGG…AGGTTGGTTTCACT; site = the 11-nt donor. The method in brief:
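In Escherichia coli, a pool of donor and donor-binding-loop pairs, each with a 12-nt UMI, was tested for the IS621 bridge recombinase. Plating was on IPTG (0.07 mM) plus kanamycin, or without selection, in two replicates. Recombinant UMIs were amplified by PCR across the donor–target junction and sequenced, and counts were reported as log10(CPM+1) after averaging and control-derived scaling.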
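Also: IS621 bridge recombinase in Escherichia coli cells against a fixed T5 target plasmid.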

On to “GAAGTCGCATGGACCGGTTTTCCCGGTAATCCGTATTTGCG (site GAAGTCGCTCG)”, for which the “recombinant UMI read abundance (log10)” value worked out at 0.562.

With “GAAGTCGCATGGACCGGTTTTCCCGGTAATCCGTATTTGCG (site GCAGTCGCTCG)”, the “recombinant UMI read abundance (log10)” value was found to be 0.0126.

With “GAAGTCGCATGGACCGGTTTTCCCGGTAATCCGTATTTGCG (site GGAGTCGCTCG)”, the “recombinant UMI read abundance (log10)” value was found to be 0.0249. For “GAAGTCGCATGGACCGGTTTTCCCGGTAATCCGTATTTGCG (site GTAGTCGCTCG)” the value was 0.023; for “GAAGTTTCATGGACCGGTTTTCCCGGTAATCCGTATTTGTT (site GAAGATTCTAA)”, 0.

On to “GAAGTTTCATGGACCGGTTTTCCCGGTAATCCGTATTTGTT (site GAAGCTTCTAA)”, for which the “recombinant UMI read abundance (log10)” value amounted to 0.43. Next, “GAAGTTTCATGGACCGGTTTTCCCGGTAATCCGTATTTGTT (site GAAGGTTCTAA)”: 0; “GAAGTTTCATGGACCGGTTTTCCCGGTAATCCGTATTTGTT (site GAAGTTTCTAA)”: 1.76. Next, “GAATACTCATGGACCGGTTTTCCCGGTAATCCGTATTTGAT (site GAATACTCTAT)”: 2.8; “GAATATTCATGGACCGGTTTTCCCGGTAATCCGTATTTGTT (site GAAAATTCTAA)”: 0. For “GAATATTCATGGACCGGTTTTCCCGGTAATCCGTATTTGTT (site GAACATTCTAA)” the value was 0; for “GAATATTCATGGACCGGTTTTCCCGGTAATCCGTATTTGTT (site GAAGATTCTAA)”, 0; for “GAATATTCATGGACCGGTTTTCCCGGTAATCCGTATTTGTT (site GAATATTCTAA)”, 0.948. For the sequence “GAATCGCCATGGACCGGTTTTCCCGGTAATCCGTATTTGCA (site GAATAGCCTTG)”, the “recombinant UMI read abundance (log10)” value turned out to be 0.613. For “GAATCGCCATGGACCGGTTTTCCCGGTAATCCGTATTTGCA (site GAATCGCCTTG)” the value was 0.687; for “GAATCGCCATGGACCGGTTTTCCCGGTAATCCGTATTTGCA (site GAATGGCCTTG)”, 0.345.

“GAATCGCCATGGACCGGTTTTCCCGGTAATCCGTATTTGCA (site GAATTGCCTTG)”: the “recombinant UMI read abundance (log10)” value is 0.

“GAATGACCATGGACCGGTTTTCCCGGTAATCCGTATTTGCA (site GAATGACCTTG)”: the “recombinant UMI read abundance (log10)” value was 1.13. Next, “GAATGACCATGGACCGGTTTTCCCGGTAATCCGTATTTGCA (site GAATGCCCTTG)”: 0; “GAATGACCATGGACCGGTTTTCCCGGTAATCCGTATTTGCA (site GAATGGCCTTG)”: 1.02. For “GAATGACCATGGACCGGTTTTCCCGGTAATCCGTATTTGCA (site GAATGTCCTTG)” the value was 0; for “GAATGCTCATGGACCGGTTTTCCCGGTAATCCGTATTTGAA (site AAATGCTCTTT)”, 0.536; for “GAATGCTCATGGACCGGTTTTCCCGGTAATCCGTATTTGAA (site CAATGCTCTTT)”, 1.08. Next, “GAATGCTCATGGACCGGTTTTCCCGGTAATCCGTATTTGAA (site GAATGCTCTTT)”: 2.05; “GAATGCTCATGGACCGGTTTTCCCGGTAATCCGTATTTGAA (site TAATGCTCTTT)”: 0.684; “GAATGGCCATGGACCGGTTTTCCCGGTAATCCGTATTTGCA (site AAATGGCCTTG)”: 0. “GAATGGCCATGGACCGGTTTTCCCGGTAATCCGTATTTGCA (site CAATGGCCTTG)”: the “recombinant UMI read abundance (log10)” value amounted to 0. Next, “GAATGGCCATGGACCGGTTTTCCCGGTAATCCGTATTTGCA (site GAAAGGCCTTG)”: 0; “GAATGGCCATGGACCGGTTTTCCCGGTAATCCGTATTTGCA (site GAACGGCCTTG)”: 0; “GAATGGCCATGGACCGGTTTTCCCGGTAATCCGTATTTGCA (site GAAGGGCCTTG)”: 0. “GAATGGCCATGGACCGGTTTTCCCGGTAATCCGTATTTGCA (site GAATAGCCTTG)”: the “recombinant UMI read abundance (log10)” value is 0.926.

On to “GAATGGCCATGGACCGGTTTTCCCGGTAATCCGTATTTGCA (site GAATCGCCTTG)”, for which the “recombinant UMI read abundance (log10)” value is 0.248.

Turning to “GAATGGCCATGGACCGGTTTTCCCGGTAATCCGTATTTGCA (site GAATGACCTTG)”, the “recombinant UMI read abundance (log10)” value stood at 0. Next, “GAATGGCCATGGACCGGTTTTCCCGGTAATCCGTATTTGCA (site GAATGCCCTTG)”: 0.0091; “GAATGGCCATGGACCGGTTTTCCCGGTAATCCGTATTTGCA (site GAATGGACTTG)”: 0.018; “GAATGGCCATGGACCGGTTTTCCCGGTAATCCGTATTTGCA (site GAATGGCCTAG)”: 0. For “GAATGGCCATGGACCGGTTTTCCCGGTAATCCGTATTTGCA (site GAATGGCCTCG)” the value was 0.0219; for “GAATGGCCATGGACCGGTTTTCCCGGTAATCCGTATTTGCA (site GAATGGCCTGG)”, 0; for “GAATGGCCATGGACCGGTTTTCCCGGTAATCCGTATTTGCA (site GAATGGCCTTA)”, 0.0192. For “GAATGGCCATGGACCGGTTTTCCCGGTAATCCGTATTTGCA (site GAATGGCCTTC)” the value was 0.0145; for “GAATGGCCATGGACCGGTTTTCCCGGTAATCCGTATTTGCA (site GAATGGCCTTG)”, 0. On to “GAATGGCCATGGACCGGTTTTCCCGGTAATCCGTATTTGCA (site GAATGGCCTTT)”, for which the “recombinant UMI read abundance (log10)” value was found to be 0.0193. For “GAATGGCCATGGACCGGTTTTCCCGGTAATCCGTATTTGCA (site GAATGGGCTTG)” the value was 0.00704. For “GAATGGCCATGGACCGGTTTTCCCGGTAATCCGTATTTGCA (site GAATGGTCTTG)”, the “recombinant UMI read abundance (log10)” value was found to be 0.0295.

Turning to “GAATGGCCATGGACCGGTTTTCCCGGTAATCCGTATTTGCA (site GAATGTCCTTG)”, the “recombinant UMI read abundance (log10)” value amounted to 0.

For “GAATGGCCATGGACCGGTTTTCCCGGTAATCCGTATTTGCA (site GAATTGCCTTG)”, the “recombinant UMI read abundance (log10)” value turned out to be 0. For “GAATGGCCATGGACCGGTTTTCCCGGTAATCCGTATTTGCA (site GACTGGCCTTG)” the value was 0.0119; for “GAATGGCCATGGACCGGTTTTCCCGGTAATCCGTATTTGCA (site GAGTGGCCTTG)”, 0; for “GAATGGCCATGGACCGGTTTTCCCGGTAATCCGTATTTGCA (site GATTGGCCTTG)”, 0. For “GAATGGCCATGGACCGGTTTTCCCGGTAATCCGTATTTGCA (site GCATGGCCTTG)” the value was 0; for “GAATGGCCATGGACCGGTTTTCCCGGTAATCCGTATTTGCA (site GGATGGCCTTG)”, 0. For “GAATGGCCATGGACCGGTTTTCCCGGTAATCCGTATTTGCA (site GTATGGCCTTG)”, the “recombinant UMI read abundance (log10)” value is 0.
